The text below walks through data of ChEMBL document CHEMBL4433231 (Bioorg Med Chem Lett, 2019).

In general, IC50 refers to the concentration needed to halve the response being measured.

The target in this test is Vitamin K epoxide reductase complex subunit 1 (Homo sapiens, UniProt Q9BQB6). Put plainly: Inhibition of VKOR (unknown origin) in HEK293 expressing FIXgla-PC incubated for 48 hrs by ELISA. Format: cell-based. On the technique in general: ELISA stands for enzyme-linked immunosorbent assay.
Vitamin K epoxide reductase complex subunit 1, sequence (Q9BQB6 whole entry, one chain of several): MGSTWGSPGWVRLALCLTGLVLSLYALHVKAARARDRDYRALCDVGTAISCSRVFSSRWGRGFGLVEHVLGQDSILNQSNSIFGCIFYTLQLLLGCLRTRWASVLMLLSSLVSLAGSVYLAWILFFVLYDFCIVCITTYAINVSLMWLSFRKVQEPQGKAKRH
In turn, `C[C@]1(O)C[C@H](C2=C/C=C\C=C/C=C\2)[C@]2(COc3ccccc3C2=O)n2c(=O)n(-c3ccccc3)c(=O)n21` yielded an IC50 of 58.2 nM.
Turning to `CC(=O)CC(c1c(O)c2ccccc2oc1=O)C1CCCCC1` (racemic), the IC50 was determined as 90.2 nM.
Regarding `CC(=O)CC(C1=C/C=C(C(=O)O)\C=C/C=C\1)c1c(O)c2ccccc2oc1=O` (racemic), the IC50 came out at 1930 nM.
`CC(=O)CC(c1c(O)c2ccccc2oc1=O)C1CCCCCCC1` (racemic) displayed an IC50 of 59 nM.
As for `CC1(O)CC(C2=C/C=C\C=C/C=C\2)c2c(c3ccccc3oc2=O)O1` (racemic), the figure is 4.5 nM.
